Source: patent US9364480B2, “Pharmaceutical composition for preventing or treating cancer, containing enoblock as active ingredient” (GWANGJU INSTITUTE OF SCIENCE AND TECHNOLOGY, priority 2012, dated 2016)
Each block holds one compound with its values, some of them ahead of it.

Key:
zebrafish larvae = assay: Measurement of glucose uptake in zebrafish (2-NBDG); format: in vivo; details: 10 μg/mL
Method: FIG. 12. […] (a) Schematic of our approach to measure the effect of ENOblock treatment on […] in zebrafish.
At 72 hpf, larvae were placed into a 96-well plate (6 eggs/well in 200 μL E3 water supplemented with 0.2 mM 2-phenylthiourea; Sigma). Drug of interest was added for […]. The solution was then replaced with E3 water supplemented with 600 μM 2-NBDG and incubated for 3 h. The larva were washed with E3 water and anesthetized with 0.02% tricaine-supplemented E3 water. One larva was then placed on a chamber slide, containing 3% methylcellulose in E3 water, for fluorescent microscopy (Leica DM2500 microscope equipped with a DFC425 C digital camera). Images were captured at 50× magnification. The remaining 5 larvae where lysed with 120 μL of CelLytic M solution (Sigma-Aldrich) and sonication (4° C., 10″/5″ pulse, 10 min). Lysed larvae were centrifuged at 10000 rpm for 10 min. 100 μL of the supernatant was transferred to a 96-well plate and fluorescence was measured with a fluorescent microplate reader (SpectraMAX Gemini XS, Molecular Devices; λex=466 nm […]).

[1] = system: pre-adipocytes undergoing adipogenesis; assay: Adipogenesis lipid accumulation (Oil Red O staining); format: cell-based; details: without adipogenesis-inducing factors
[2] = system: PEPCK expression in HEK cells; assay: PEPCK expression in kidney cells; format: cell-based; details: 1 μg/mL, 24 h
Excerpt: FIG. 10. […] Error=SD; *=P<0.05 compared to the no drug (DMSO-treated) group. […] Error=SD; *=P<0.05 for reduced PEPCK expression compared to the no drug (DMSO-treated) group.

purified enolase = purified enolase (Schistosoma mansoni, UniProt Q27877); details: cited from earlier work
Chain of purified enolase (Q27877 whole entry): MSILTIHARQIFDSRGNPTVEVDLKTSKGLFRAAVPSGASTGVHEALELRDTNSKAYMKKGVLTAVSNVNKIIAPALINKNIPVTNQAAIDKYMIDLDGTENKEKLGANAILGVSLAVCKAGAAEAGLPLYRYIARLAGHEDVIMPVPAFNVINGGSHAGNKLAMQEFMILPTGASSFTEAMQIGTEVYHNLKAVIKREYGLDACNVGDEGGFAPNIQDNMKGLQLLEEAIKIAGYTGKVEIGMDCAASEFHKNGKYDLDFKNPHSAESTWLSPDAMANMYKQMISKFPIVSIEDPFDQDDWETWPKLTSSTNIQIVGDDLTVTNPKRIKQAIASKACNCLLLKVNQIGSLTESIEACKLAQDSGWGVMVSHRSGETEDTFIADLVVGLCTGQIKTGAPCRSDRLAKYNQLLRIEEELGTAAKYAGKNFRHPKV

[3] = target: recombinant enolase from Schistosoma mansoni (Schistosoma mansoni, UniProt Q27877); details: cited from earlier work
Chain of recombinant enolase from Schistosoma mansoni (Q27877 whole entry): as above

[4] = target: T1, Enolase purified from rabbit muscle (Oryctolagus cuniculus, UniProt P25704); assay: Enolase activity assay; format: biochemical; details: purified enolase
T1 construct: Enolase purified from rabbit muscle was purchased from Sigma-Aldrich; purchased Sigma-Aldrich; host or cells: rabbit muscle
T1 sequence (P25704 whole entry): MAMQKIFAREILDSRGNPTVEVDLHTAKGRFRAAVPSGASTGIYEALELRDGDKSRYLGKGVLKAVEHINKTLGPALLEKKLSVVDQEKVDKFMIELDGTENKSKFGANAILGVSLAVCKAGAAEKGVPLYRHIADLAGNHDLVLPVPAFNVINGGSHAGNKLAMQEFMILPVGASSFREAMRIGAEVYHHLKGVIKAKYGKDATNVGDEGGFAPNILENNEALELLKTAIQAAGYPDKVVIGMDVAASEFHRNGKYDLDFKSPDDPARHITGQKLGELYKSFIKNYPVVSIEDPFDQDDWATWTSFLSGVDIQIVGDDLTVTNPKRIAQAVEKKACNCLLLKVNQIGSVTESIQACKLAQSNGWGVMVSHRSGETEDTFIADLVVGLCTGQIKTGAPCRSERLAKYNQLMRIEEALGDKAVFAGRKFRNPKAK
Method: FIG. 4. […] (a) Affinity chromatography study for ENOblock in HCT116 cancer cells. […] (b) Sequence identification for the enolase monomer subunit. […] Mascot scores above 100 were deemed to be significant. […] Twenty micrograms of cell lysate from YD-10B oral cancer cells or Huh7 hepatocytes were used as positive controls. […] As a positive control, ENOblock affinity matrix was incubated with 200 μg of HCT 116 cell lysate; 50 μg cell lysate from HCT116 cancer cells was used as a positive control for the enolase antibody.
Enolase purified from rabbit muscle was purchased from Sigma-Aldrich. A single unit of enolase is defined as the amount of enzyme that produces 1 μmol of phosphoenol pyruvate from phospho-D-glycerate/min in standard assay.^52 Enolase activity assay was measured at 37° C. by incubating pure enolase (3-9 U) in a buffer containing 50 mM imidazole-HCl (pH 6.8)(JUNSEI), 2.0 mM MgSO4 (JUNSEI) and 400 mM KCl (JUNSEI) in the absence or presence of ENOblock or NaF (Sigma). The reaction was initiated by adding 1 μmol of 2-phospho-D-glycerate, and the OD was measured after 10 min of reaction time with a spectrophometer at 240 nm.

Compound: Cc1cc(O)c2c(c1)C(=O)c1cc(O)cc(O)c1C2=O [emodin, 6-methyl-1,3,8-trihydroxyanthraquinone, reference compound]
glucose uptake in larvae (2-NBDG fluorescence microscopy) (zebrafish larvae): enhanced glucose uptake in a similar but more intense pattern compared to the zebrafish treated with ENOblock
2-NBDG fluorescence signal intensity in the eye (zebrafish larvae; 72 hpf larvae, 4 h, vs 2-NBDG alone): induced significantly greater fluorescent tagged glucose uptake in the zebrafish eye

Compound: insulin: insulin
lipid accumulation in preadipocytes (Oil Red O, microscopy) [1]: still induced lipid accumulation
PEPCK expression [2]: did not reduce PEPCK expression

Compound: OC(c1cc(C(F)(F)F)nc2c(C(F)(F)F)cccc12)C1CCCCN1 (stereo not shown) [mefloquine]
inhibition of purified enolase activity (purified enolase): could not inhibit purified enolase activity
direct binding to recombinant enolase [3]: could not directly bind to recombinant enolase from this parasite

treatment concentration giving enolase activity level approximated by 2.5 μM ENOblock [4]: 1 mM
Compound: [F-].[Na+] [NaF, sodium fluoride, reference compound]
